Earlier results in article PMC10928227, “Assessing biologic/toxicologic effects of extractables from plastic contact materials for advanced therapy manufacturing using cell painting assay and cytotoxicity screening” (Scientific Reports, 2024).
Where two headings read alike, the source gives them in different places.

Settings: cited from earlier work; for Risk based on in vitro genotoxicity data from database (from QSAR-toolbox): not checked for in vivo relevance, ref QSAR Toolbox 4.5 database
[1] = in Vitro, Chinese hamster, Chinese Hamster Lung (CHL), Duration 24÷48 h, Database Genotoxicity OASIS, ref Sofuni, T., Ed. (1998). Data Book of Chromosomal Aberration Test In Vitro, Revised Edition
[2] = Salmonella typhimurium, Strain TA 97, in Vitro, Database: Bacterial mutagenicity ISSSTY, ref CCRIS database,Toxnet databases (Romualdo Benigni)
[3] = Salmonella typhimurium, Strain TA 98, in Vitro, Database: Bacterial mutagenicity ISSSTY, ref CCRIS database,Toxnet databases (Romualdo Benigni)
[4] = Salmonella typhimurium, Strain TA 100, in Vitro, Database: Bacterial mutagenicity ISSSTY, ref CCRIS database,Toxnet databases (Romualdo Benigni)
[5] = Salmonella typhimurium, Strain TA 102, in Vitro, Database: Bacterial mutagenicity ISSSTY, ref CCRIS database,Toxnet databases (Romualdo Benigni)
[6] = Salmonella typhimurium, Strain TA 1535, in Vitro, Database: Bacterial mutagenicity ISSSTY, ref CCRIS database,Toxnet databases (Romualdo Benigni)
[7] = Salmonella typhimurium, Strain TA 1537, in Vitro, Database: Bacterial mutagenicity ISSSTY, ref CCRIS database,Toxnet databases (Romualdo Benigni)
[8] = in Vitro, Salmonella typhimurium, No Strain Information, Database Genotoxicity OASIS, ref Journal of Medicinal Chemistry 48 (1), pp. 312-32, 25, Kazius J, McGuire R., Bursi R
[9] = in Vitro, Salmonella typhimurium, Strain TA 97, Database Genotoxicity OASIS, ref P&G
[10] = in Vitro, Salmonella typhimurium, Strain TA 98, Database Genotoxicity OASIS, ref P&G
[11] = in Vitro, Salmonella typhimurium, Strain TA 100, Database Genotoxicity OASIS, ref P&G
[12] = in Vitro, Salmonella typhimurium, Strain TA 1535, Database Genotoxicity OASIS, ref P&G
[13] = in Vitro, Salmonella typhimurium, Strain TA 1537, Database Genotoxicity OASIS, ref P&G
[14] = in Vitro, Salmonella typhimurium, Strain TA 1538, Database Genotoxicity OASIS, ref P&G
[15] = in Vitro, Salmonella typhimurium, Strain TA 98, Database Bacterial mutagenicity ISSSTY, ref CCRIS database,Toxnet databases, Romualdo Benigni, 02.5.2011
[16] = in Vitro, Salmonella typhimurium, Strain TA 1535, Database Bacterial mutagenicity ISSSTY, ref CCRIS database,Toxnet databases, Romualdo Benigni, 02.5.2011
[17] = in Vitro, Salmonella typhimurium, Strain TA 1537, Database Bacterial mutagenicity ISSSTY, ref CCRIS database,Toxnet databases, Romualdo Benigni, 02.5.2011
[18] = in Vitro, Salmonella typhimurium, Strain TA 97, Database Bacterial mutagenicity ISSSTY, ref CCRIS database,Toxnet databases, Romualdo Benigni, 02.5.2011

CC(C)(C)c1ccc(O)c(C(C)(C)C)c1 [2,4-Di-tert-butylphenol]
Risk based on in vitro genotoxicity data from database (from QSAR-toolbox): Positive in vitro data

Sc1nc2ccccc2s1 [2-Mercaptobenzothiazole]
Risk based on in vitro genotoxicity data from database (from QSAR-toolbox): Positive in vitro data

OCC(O)CO [56-81-5]
Chromosome aberration, in Vitro Mammalian Chromosome Aberration Test (in Vitro, Chinese hamster, Chinese Hamster Lung (CHL), Database Genotoxicity OASIS, ref ECHA, Registration dossier): Negative
Chromosome aberration, in Vitro Mammalian Chromosome Aberration Test [1]: Negative

Cc1ccc(S(N)(=O)=O)cc1 [70-55-3]
Gene mutation, Bacterial Reverse Mutation Assay (e.g. Ames Test) (Salmonella typhimurium, No Strain Information, in Vitro, Database: Genotoxicity OASIS, ref NIHS Japan): Negative
Gene mutation, Bacterial Reverse Mutation Assay (e.g. Ames Test) (Salmonella typhimurium, Strain TA 98, in Vitro, Database: Genotoxicity OASIS, ref https://doi.org/10.22427/NTP-DATA-022-00002-0001-000-7, National Institute of Environmental Health Sciences): Negative
Gene mutation, Bacterial Reverse Mutation Assay (e.g. Ames Test) (Salmonella typhimurium, Strain TA 100, in Vitro, Database: Genotoxicity OASIS, ref https://doi.org/10.22427/NTP-DATA-022-00002-0001-000-7, National Institute of Environmental Health Sciences): Negative
Gene mutation, Bacterial Reverse Mutation Assay (e.g. Ames Test) (Salmonella typhimurium, Strain TA 102, in Vitro, Database: Genotoxicity OASIS, ref https://doi.org/10.22427/NTP-DATA-022-00002-0001-000-7, National Institute of Environmental Health Sciences): Negative
Gene mutation, Bacterial Reverse Mutation Assay (e.g. Ames Test) (Salmonella typhimurium, Strain TA 1535, in Vitro, OECD Guideline 471, Database: Genotoxicity OASIS, ref Japan Existing Chemical Data Base): Negative
Chromosome aberration, in Vitro Mammalian Chromosome Aberration Test (in Vitro, Chinese hamster, Chinese Hamster Lung Cells, Guidelines For Screening Mutagenicity Testing of Chemicals (Chemical Substances Control Law of Japan), Database Toxicity Japan MHLW, ref Japan Ministry of Health Labour and Welfare, http://dra4.nihs.go.jp/mhlw_data/jsp/SearchPageENG.jsp): Negative
Gene mutation, Bacterial Reverse Mutation Assay (e.g. Ames Test) (in Vitro, E. coli WP2 uvrA, Database Genotoxicity OASIS, ref ECHA, Registration dossier): Negative
Gene mutation, Bacterial Reverse Mutation Assay (e.g. Ames Test) (in Vitro, Escherichia coli, Strain WP2 UvrA, Guidelines For Screening Mutagenicity Testing of Chemicals (Chemical Substances Control Law of Japan), Database Toxicity Japan MHLW, ref Japan Existing Chemical Data Base, http://dra4.nihs.go.jp/mhlw_data/jsp/SearchPageENG.jsp): Negative
Chromosome aberration, in Vitro Mammalian Chromosome Aberration Test (in Vitro, No Strain Information, Database Genotoxicity OASIS, ref NIHS Japan): Negative
Gene mutation, Bacterial Reverse Mutation Assay (e.g. Ames Test) (in Vitro, Salmonella typhimurium, Strain TA 97, Guidelines For Screening Mutagenicity Testing of Chemicals (Chemical Substances Control Law of Japan), Database Toxicity Japan MHLW, ref Japan Existing Chemical Data Base, http://dra4.nihs.go.jp/mhlw_data/jsp/SearchPageENG.jsp): Negative
Gene mutation, Bacterial Reverse Mutation Assay (e.g. Ames Test) (in Vitro, Salmonella typhimurium, Strain TA 100, Guidelines For Screening Mutagenicity Testing of Chemicals (Chemical Substances Control Law of Japan), Database Toxicity Japan MHLW, ref Japan Existing Chemical Data Base, http://dra4.nihs.go.jp/mhlw_data/jsp/SearchPageENG.jsp): Negative
Gene mutation, Bacterial Reverse Mutation Assay (e.g. Ames Test) (in Vitro, Salmonella typhimurium, Strain TA 1535, Guidelines For Screening Mutagenicity Testing of Chemicals (Chemical Substances Control Law of Japan), Database Toxicity Japan MHLW, ref Japan Existing Chemical Data Base, http://dra4.nihs.go.jp/mhlw_data/jsp/SearchPageENG.jsp): Negative
Gene mutation, Bacterial Reverse Mutation Assay (e.g. Ames Test) (in Vitro, Salmonella typhimurium, Strain TA 1535, OECD Guideline 471, Database Genotoxicity OASIS, ref Japan Existing Chemical Data Base): Negative
Gene mutation, Bacterial Reverse Mutation Assay (e.g. Ames Test) (in Vitro, Salmonella typhimurium, Strain TA 1537, Guidelines For Screening Mutagenicity Testing of Chemicals (Chemical Substances Control Law of Japan), Database Toxicity Japan MHLW, ref Japan Existing Chemical Data Base, http://dra4.nihs.go.jp/mhlw_data/jsp/SearchPageENG.jsp): Negative
Gene mutation, Bacterial Reverse Mutation Assay (e.g. Ames Test) (in Vitro, Salmonella typhimurium, Strain TA 1537, OECD Guideline 471, Database Genotoxicity OASIS, ref Japan Existing Chemical Data Base): Negative

CCC(C)=O [78-93-3]
Gene mutation, Bacterial Reverse Mutation Assay (e.g. Ames Test) [2]: Negative
Gene mutation, Bacterial Reverse Mutation Assay (e.g. Ames Test) [3]: Negative
Gene mutation, Bacterial Reverse Mutation Assay (e.g. Ames Test) [4]: Negative
Gene mutation, Bacterial Reverse Mutation Assay (e.g. Ames Test) [5]: Negative
Gene mutation, Bacterial Reverse Mutation Assay (e.g. Ames Test) (Salmonella typhimurium, Strain TA 104, in Vitro, Database: Bacterial mutagenicity ISSSTY, ref CCRIS database,Toxnet databases (Romualdo Benigni)): Negative
Gene mutation, Bacterial Reverse Mutation Assay (e.g. Ames Test) [6]: Negative
Gene mutation, Bacterial Reverse Mutation Assay (e.g. Ames Test) [7]: Negative
Gene mutation, Bacterial Reverse Mutation Assay (e.g. Ames Test) (Salmonella typhimurium, Strain TA 1538, in Vitro, Database: Bacterial mutagenicity ISSSTY, ref CCRIS database,Toxnet databases (Romualdo Benigni)): Negative
Gene mutation, Bacterial Reverse Mutation Assay (e.g. Ames Test) [8]: Negative
Gene mutation, Bacterial Reverse Mutation Assay (e.g. Ames Test) [9]: Negative
Gene mutation, Bacterial Reverse Mutation Assay (e.g. Ames Test) [10]: Negative
Gene mutation, Bacterial Reverse Mutation Assay (e.g. Ames Test) [11]: Negative
Gene mutation, Bacterial Reverse Mutation Assay (e.g. Ames Test) (in Vitro, Salmonella typhimurium, Strain TA 102, OECD Guideline 471, Database Genotoxicity OASIS, ref CCRIS database,Toxnet databases): Negative
Gene mutation, Bacterial Reverse Mutation Assay (e.g. Ames Test) [12]: Negative
Gene mutation, Bacterial Reverse Mutation Assay (e.g. Ames Test) [13]: Negative
Gene mutation, Bacterial Reverse Mutation Assay (e.g. Ames Test) [14]: Negative

CCCCOC(=O)c1ccccc1C(=O)OCCCC [84-74-2]
Gene mutation, Bacterial Reverse Mutation Assay (e.g. Ames Test) [3]: Negative
Gene mutation, Bacterial Reverse Mutation Assay (e.g. Ames Test) [6]: Negative
Gene mutation, Bacterial Reverse Mutation Assay (e.g. Ames Test) [7]: Negative
Chromosome aberration, in Vitro Mammalian Chromosome Aberration Test (in Vitro, Chinese hamster, Chinese Hamster Lung (CHL), Duration 6÷18 h, Database Genotoxicity OASIS, ref Sofuni, T., Ed. (1998). Data Book of Chromosomal Aberration Test In Vitro, Revised Edition): Negative
Chromosome aberration, in Vitro Mammalian Chromosome Aberration Test [1]: Negative
Gene mutation, Bacterial Reverse Mutation Assay (e.g. Ames Test) [9]: Negative
Gene mutation, Bacterial Reverse Mutation Assay (e.g. Ames Test) [15]: Negative
Gene mutation, Bacterial Reverse Mutation Assay (e.g. Ames Test) [10]: Negative
Gene mutation, Bacterial Reverse Mutation Assay (e.g. Ames Test) [11]: Negative
Gene mutation, Bacterial Reverse Mutation Assay (e.g. Ames Test) [16]: Negative
Gene mutation, Bacterial Reverse Mutation Assay (e.g. Ames Test) [12]: Negative
Gene mutation, Bacterial Reverse Mutation Assay (e.g. Ames Test) [17]: Negative
Gene mutation, Bacterial Reverse Mutation Assay (e.g. Ames Test) [13]: Negative
Gene mutation, Bacterial Reverse Mutation Assay (e.g. Ames Test) [14]: Negative

CC(=O)c1ccccc1 [98-86-2]
Gene mutation, Bacterial Reverse Mutation Assay (e.g. Ames Test) [2]: Negative
Gene mutation, Bacterial Reverse Mutation Assay (e.g. Ames Test) [3]: Negative
Gene mutation, Bacterial Reverse Mutation Assay (e.g. Ames Test) [4]: Negative
Gene mutation, Bacterial Reverse Mutation Assay (e.g. Ames Test) [5]: Negative
Gene mutation, Bacterial Reverse Mutation Assay (e.g. Ames Test) [6]: Negative
Gene mutation, Bacterial Reverse Mutation Assay (e.g. Ames Test) [7]: Negative
Gene mutation, Bacterial Reverse Mutation Assay (e.g. Ames Test) [8]: Negative
Gene mutation, Bacterial Reverse Mutation Assay (e.g. Ames Test) [18]: Negative
Gene mutation, Bacterial Reverse Mutation Assay (e.g. Ames Test) (in Vitro, Salmonella typhimurium, Strain TA 97, Database Genotoxicity OASIS, ref FUJITA H. AND SASAKI M., KENKYU NENPO - TOKYO-TORITSU EISEI KENKYUSHO 38:423-430, 1987): Negative
Gene mutation, Bacterial Reverse Mutation Assay (e.g. Ames Test) [15]: Negative
Gene mutation, Bacterial Reverse Mutation Assay (e.g. Ames Test) (in Vitro, Salmonella typhimurium, Strain TA 102, Database Genotoxicity OASIS, ref FUJITA H. AND SASAKI M., KENKYU NENPO - TOKYO-TORITSU EISEI KENKYUSHO 38:423-430, 1987): Negative

CCCCCCCCCc1ccc(O)cc1 [104-40-5]
Gene mutation, Bacterial Reverse Mutation Assay (e.g. Ames Test) [4]: Negative
Gene mutation, Bacterial Reverse Mutation Assay (e.g. Ames Test) [5]: Negative
Gene mutation, Bacterial Reverse Mutation Assay (e.g. Ames Test) [8]: Negative
Gene mutation, Bacterial Reverse Mutation Assay (e.g. Ames Test) [18]: Negative
Gene mutation, Bacterial Reverse Mutation Assay (e.g. Ames Test) [15]: Negative
Gene mutation, Bacterial Reverse Mutation Assay (e.g. Ames Test) (in Vitro, Salmonella typhimurium, Strain TA 100, Database Bacterial mutagenicity ISSSTY, ref CCRIS database,Toxnet databases, Romualdo Benigni, 02.5.2011): Negative
Gene mutation, Bacterial Reverse Mutation Assay (e.g. Ames Test) (in Vitro, Salmonella typhimurium, Strain TA 102, Database Bacterial mutagenicity ISSSTY, ref CCRIS database,Toxnet databases, Romualdo Benigni, 02.5.2011): Negative
Gene mutation, Bacterial Reverse Mutation Assay (e.g. Ames Test) (in Vitro, Salmonella typhimurium, Strain TA 104, Database Bacterial mutagenicity ISSSTY, ref CCRIS database,Toxnet databases, Romualdo Benigni, 02.5.2011): Negative
Gene mutation, Bacterial Reverse Mutation Assay (e.g. Ames Test) [16]: Negative
Gene mutation, Bacterial Reverse Mutation Assay (e.g. Ames Test) [17]: Negative
Gene mutation, Bacterial Reverse Mutation Assay (e.g. Ames Test) (in Vitro, Salmonella typhimurium, Strain TA 1538, Database Bacterial mutagenicity ISSSTY, ref CCRIS database,Toxnet databases, Romualdo Benigni, 02.5.2011): Negative
